This is an account of results in patent US20110065672A1, “BISPHOSPHONATE-PROSTATIC ACID PHOSPHATASE INHIBITOR CONJUGATES TO TREAT PROSTATE CANCER BONE METASTASIS” (MOUNT SINAI SCHOOL OF MEDICINE OF NEW YORK UNIVERSITY, priority 2009, published 2011).

Experiment [1] addresses T1, prostatic acid phosphatase (PAP) (Homo sapiens, UniProt P15309).
T1 construct: endogenous in cells; host or cells: VCaP (human prostate cancer cell line); in A3 also MC3T3 pre-osteoblasts, alone or in co-culture
T1 sequence (P15309 33-386): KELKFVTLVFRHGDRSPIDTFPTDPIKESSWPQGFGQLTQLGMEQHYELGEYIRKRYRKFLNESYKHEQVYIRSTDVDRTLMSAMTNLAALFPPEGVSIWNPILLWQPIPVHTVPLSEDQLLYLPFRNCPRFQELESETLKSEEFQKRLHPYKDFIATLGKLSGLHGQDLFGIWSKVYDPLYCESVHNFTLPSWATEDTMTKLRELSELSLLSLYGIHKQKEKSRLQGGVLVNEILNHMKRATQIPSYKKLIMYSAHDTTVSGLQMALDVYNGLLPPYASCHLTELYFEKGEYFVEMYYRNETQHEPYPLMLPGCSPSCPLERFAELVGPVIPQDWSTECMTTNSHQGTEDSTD
Put plainly: PAP secretion in VCaP cell culture with conjugates, ELISA. It is filed as cell-based. Particulars: overnight; for inhibition of PAP secretion: 0.1 mM or 1.0 mM in VCaP cell culture medium. The procedure:
Either the glyceric acid conjugate (i.e., N-Alendronyl-D-Glyceramide) (example 1, 0.1 mM or 1.0 mM) or the tartaric acid conjugate (i.e., N-Alendronyl-L-Tartaric Acid Monamide) (example 2, 0.1 mM or 1.0 mM) was added to VCaP cell culture medium, and incubated overnight. PAP secretion was measured using an ELISA assay.

The subject of experiment [2] is prostatic acid phosphatase (PAP). Put plainly: Secretion of PAP from MC3T3 and VCaP single line and co-cultures, ELISA. It is filed as cell-based, human. The settings on record: tartrate 20 μM, 7 days, MC3T3 cells (very low PAP levels). As for the experimental part: (§1) The human prostate cancer cell line VCaP (originally derived from a vertebral metastases) and the pre-osteoblast cell line MC3T3, were used to for in vitro studies with tartrate. Each cell culture was grown in serum free medium either in single line or co-culture, and treated with or without tartrate (20 μM) for 7 days. Cell numbers were counted by a hemacytometer and the secretion of PAP and bone alkaline phosphatase (ALP) was measured using ELISA.

The target of experiment [3] is T1, prostatic acid phosphatase (PAP). The description is as above. The settings on record: tartrate 20 μM, 7 days. It is filed as cell-based. The procedure:
as §1

The subject of experiment [4] is bone alkaline phosphatase (ALP). Put plainly: Secretion of bone alkaline phosphatase (ALP), ELISA. The experiment is classed as cell-based. The settings on record: tartrate 20 μM, 7 days. As for the experimental part: as §1
Secretion of bone alkaline phosphatase (ALP) by pre-osteoblast cells is correlated with pre-osteoblast differentiation into mature osteoblasts cells. Accordingly, ALP secretion was measured to indirectly determine whether the inhibition of PAP secretion by tartrate also served to attenuate differentiation events. […] This effect was not seen in the single line MC3T3 and VCaP cell cultures.

A further experiment concerns RAW (osteoclast) cells. Put plainly: Osteoclast bone-resorbing activity, pit formation on osteologic discs. Particulars: tartrate 20 μM, 7 days, RANKL and MCSF. It is filed as cell-based. As for the experimental part:
The effect of PAP on osteoclast bone-resorbing activity was measured by assaying pit formation when osteoclasts were cultured on bone matrix (osteologic discs). RAW (osteoclast) cells (2×10^4 cells), PC3 (PAP^−) cells (2×10^4 cells), and VCaP (PAP^+) cells (3×10^4 cells) were plated, alone or in combination, on calcium hydroxyapatite-coated osteologic discs in DMEM medium with 10% FBS for 7 days+/−tartrate (20 μM). All cultures were treated with RANKL ([…]) and MCSF ([…]). On day 7, cells were washed and discs stained with von Kossa to visualize the calcium matrix and pits (which indicate bone resorption by the RAW osteoclast cells).

In another experiment the test system is VCaP cells. Put plainly: Growth of VCaP prostate cancer cells, single line or co-culture, counted by hemacytometer. The settings on record: tartrate 20 μM, 7 days, serum free medium. The experiment is classed as cell-based, human. As for the experimental part:
as §1

The next experiment deals with T2, PAP (Homo sapiens, UniProt P15309).
T2 sequence (P15309 33-386): T1 sequence (P15309 33-386)
Particulars: see U.S. Pat. No. 5,763,490; cited from earlier work.

Experiment [5] has as its system RAW cells. Put plainly: RAW pre-osteoclast cell growth in co-culture experiments, hemacytometer. It is filed as cell-based. The settings on record: tartrate (2004) for 2 days. As for the experimental part: (§2) In order to determine the effects of prostatic acid phosphatase (PAP) on osteoclast differentiation and activity, a series of co-culture experiments were performed in which pre-osteoclast cells (RAW cells) were co-cultured with either PAP-positive (PAP^+), VCaP cells or PAP-negative (PAP^−) (PC3) human prostate cancer (PCa) cells. RAW cells were counted in a hemacytometer on day 5.
(§3) VCaP (PAP^+) and PC3 (PAP^−) cells (5×10^4 each) were seeded on inserts in RPMI or DMEM medium with 10% FBS. Pre-osteoclast, PRAW cells (5×10^4) were plated on the bottom in 12 well plates. After 2 days, medium was changed to serum-free DMEM with 0.1% BSA+/− tartrate (2004) for 2 days. Mean number of multinucleated cells (hallmark of osteoclast differentiation) was determined on day 5 by multiple field counts in 200× objective view.

A further experiment addresses T3, bone acid phosphatase (Homo sapiens, UniProt P13686).
T3 sequence (P13686 22-325): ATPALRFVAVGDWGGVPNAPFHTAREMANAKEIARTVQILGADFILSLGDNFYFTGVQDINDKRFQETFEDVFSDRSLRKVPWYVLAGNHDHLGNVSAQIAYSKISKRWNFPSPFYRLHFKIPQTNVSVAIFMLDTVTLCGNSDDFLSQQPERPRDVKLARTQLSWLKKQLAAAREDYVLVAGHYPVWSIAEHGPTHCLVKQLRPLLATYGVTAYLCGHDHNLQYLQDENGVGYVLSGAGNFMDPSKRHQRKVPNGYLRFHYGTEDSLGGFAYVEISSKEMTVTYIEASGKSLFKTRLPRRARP
Particulars: cited from earlier work.

In another experiment the test system is MC3T3 cells. Put plainly: Growth of MC3T3 pre-osteoblast cells, single line or co-culture, counted by hemacytometer. The experiment is classed as cell-based. The settings on record: tartrate 20 μM, 7 days, serum free medium. As for the experimental part:
as §1

The subject of experiment [6] is RAW cells. Put plainly: RAW cell differentiation, mean number of multinucleated cells. It is filed as cell-based. Particulars: tartrate (2004) for 2 days. As for the experimental part:
as §2, §3

For the compound `O=C(NCCCC(O)(P(=O)(O)O)P(=O)(O)O)[C@H](O)CO` [example 1, N-Alendronyl-D-Glyceramide], the “inhibition of PAP secretion” value in experiment [1] is listed as “significantly inhibited”. The “effectiveness as a PAP inhibitor compared with tartrate alone” value in experiment [1] (VCaP cell culture medium) was “as effective as tartrate alone”.

For the compound `O=C(O)C(O)[C@H](O)C(=O)NCCCC(O)(P(=O)(O)O)P(=O)(O)O` (stereo partly drawn) [example 2, N-Alendronyl-L-Tartaric Acid Monamide], the “inhibition of PAP secretion” value in experiment [1] was “inhibit PAP secretion”.

`O=C(O)[C@H](O)[C@@H](O)C(=O)O` [tartrate, L-tartrate]: the “PAP secretion by MC3T3 cells” value in experiment [2] was “did not inhibit”. Moreover, the “prostatic acid phosphatase secretion by VCaP cells grown alone” value in [3] (VCaP alone) is listed as “significantly inhibited”. The “prostatic acid phosphatase secretion by VCaP cells in co-culture with MC3T3 cells” value in experiment [3] (co-culture with MC3T3) was “significantly inhibited”. For the same compound, the “bone alkaline phosphatase secretion by MC3T3 cells in co-culture with VCaP cells” value in experiment [4] (co-culture with VCaP) is “significantly inhibited”. Also, in experiment [4] (single line MC3T3), the “bone alkaline phosphatase secretion, single line MC3T3 cell culture” value is given as “not seen”. In [4] (single line VCaP), the “bone alkaline phosphatase secretion, single line VCaP cell culture” value is listed as “not seen”. In the experiment on RAW (osteoclast) cells, the “decrease of pit formation, RAW cells co-cultured with VCaP” value is listed as 50% and the “effect on number of pits, RAW cells co-cultured with PC3 cells” value was “no significant effect”. In addition, in the experiment with VCaP cells (co-culture with MC3T3), the “effect on VCaP cell growth when co-cultured with MC3T3 cells” value was “did not have a significant effect”. Moreover, the “effect on growth of VCaP single line cell culture” value in the experiment on VCaP cells (single line) was “did not have a significant effect”. Also, on PAP, the “inhibition of PAP” value is on record as “inhibited”. Also, the “effect on growth of RAW cells co-cultured with PC3 cells” value in the experiment with RAW cells [5] (counted day 5, co-culture with PC3 (PAP-)) is reported as “did not have a significant effect”. In addition, the “effect on growth of RAW cells co-cultured with VCaP cells” value with RAW cells [5] (counted day 5, co-culture with VCaP (PAP+), p<0.01) was “significantly inhibited”. The “effect on growth of RAW cells alone” value in the experiment with RAW cells [5] (serum-free DMEM with 0.1% BSA, counted day 5, RAW alone) was “did not have a significant effect”. At bone acid phosphatase, the “inhibition of bone acid phosphatase” value was “is not”. For the same compound, in the experiment on MC3T3 cells (co-culture with VCaP, p<0.01), the “effect on growth of MC3T3 cells co-cultured with VCaP cells” value was “significantly inhibited”. For the same compound, in the experiment with MC3T3 cells (single line), the “effect on growth of MC3T3 single line cell culture” value is on record as “did not have a significant effect”. Moreover, the “effect on differentiation of RAW cells alone” value in the experiment on RAW cells [6] (multinucleated cells on day 5, RAW alone) is reported as “did not have a significant effect”. Also, in the experiment with RAW cells [6] (multinucleated cells on day 5, co-culture with PC3), the “effect on differentiation of RAW cells co-cultured with PC3 cells” value was “did not have a significant effect”. For the same compound, the “effect on RAW cell differentiation when co-cultured with VCaP” value in the experiment with RAW cells [6] (multinucleated cells on day 5, co-culture with VCaP, p<0.01) is reported as “significantly inhibited”.
